What was measured:
Assay in all cases: relative viability (nuclei count vs DMSO), 5 days (fraction); higher = more cells survive
Crenolanib + OSI-027 = compound: CC1(COc2ccc3c(c2)ncn3-c2ccc3cccc(N4CCC(N)CC4)c3n2)COC1 [Crenolanib] + COc1cccc2cc(-c3nc([C@H]4CC[C@H](C(=O)O)CC4)n4ncnc(N)c34)[nH]c12 [OSI-027] (partner 0.5 µM)
Outline: (§1)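 Cells from lung cancer lines were seeded into 1536-well plates and, one day later, dosed by pin tool. Treatments were either a single drug or a fixed dose of an anchor drug with five library-drug doses (not always all listed) in √10 steps. After 5 days, nuclei were stained in a one-step fixation (final 0.05% Triton X-100, 1% formaldehyde, 1 ug/ml Hoechst) and counted on 4× images, and relative viability is the treated-to-vehicle nuclei ratio, as the median of duplicate plates.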

Crenolanib + Crizotinib = compound: CC1(COc2ccc3c(c2)ncn3-c2ccc3cccc(N4CCC(N)CC4)c3n2)COC1 [Crenolanib] + C[C@@H](Oc1cc(-c2cnn(C3CCNCC3)c2)cnc1N)c1c(Cl)ccc(F)c1Cl [Crizotinib] (partner 1 µM)
Outline: as §1

Crenolanib + Decitabine = compound: CC1(COc2ccc3c(c2)ncn3-c2ccc3cccc(N4CCC(N)CC4)c3n2)COC1 [Crenolanib] + Nc1ncn([C@H]2C[C@H](O)[C@@H](CO)O2)c(=O)n1 [Decitabine] (partner 2 µM)
Outline: as §1

Tivantinib + OSI-027 = compound: O=C1NC(=O)[C@@H](c2cn3c4c(cccc24)CCC3)[C@@H]1c1c[nH]c2ccccc12 [Tivantinib] + COc1cccc2cc(-c3nc([C@H]4CC[C@H](C(=O)O)CC4)n4ncnc(N)c34)[nH]c12 [OSI-027] (partner 0.5 µM)
Outline: as §1

Cell Line | relative viability (Crenolanib + OSI-027; first compound 0.01 µM) | relative viability (Crenolanib + OSI-027; first compound 0.03162 µM) | relative viability (Crenolanib + OSI-027; first compound 0.1 µM) | relative viability (Crenolanib + OSI-027; first compound 0.3162 µM) | relative viability (Crenolanib + OSI-027; first compound 1 µM) | relative viability (Crenolanib + Crizotinib; first compound 0.01 µM) | relative viability (Crenolanib + Crizotinib; first compound 0.03162 µM) | relative viability (Crenolanib + Crizotinib; first compound 0.1 µM) | relative viability (Crenolanib + Crizotinib; first compound 0.3162 µM) | relative viability (Crenolanib + Crizotinib; first compound 1 µM) | relative viability (Crenolanib + Decitabine; first compound 0.01 µM) | relative viability (Crenolanib + Decitabine; first compound 0.03162 µM) | relative viability (Crenolanib + Decitabine; first compound 0.1 µM) | relative viability (Crenolanib + Decitabine; first compound 0.3162 µM) | relative viability (Crenolanib + Decitabine; first compound 1 µM) | relative viability (Tivantinib + OSI-027; first compound 0.01 µM) | relative viability (Tivantinib + OSI-027; first compound 0.03162 µM) | relative viability (Tivantinib + OSI-027; first compound 0.1 µM) | relative viability (Tivantinib + OSI-027; first compound 0.3162 µM)
HCC-827 | 0.793 | 0.691 | 0.742 | 0.885 | 0.821 | 0.938 | 0.885 | 0.932 | 0.964 | 0.884 | 0.332 | 0.329 | 0.311 | 0.308 | 0.348 | 0.764 | 0.844 | 0.708 | 0.253
LC-2-ad | 0.939 | 0.793 | 0.792 | 0.706 | 0.554 | 0.439 | 0.444 | 0.56 | 0.44 | 0.486 | 0.833 | 0.844 | 0.759 | 0.818 | 0.78 | 0.851 | 0.738 | 0.816 | 0.573
NCI-H441 | 0.929 | 0.6 | 0.507 | 0.539 | 0.463 | 0.684 | 0.738 | 0.56 | 0.772 | 0.846 | 0.259 | 0.276 | 0.277 | 0.251 | 0.243 | 0.517 | 0.608 | 0.498 | 0.471
NCI-H322M | 0.648 | 0.574 | 0.575 | 0.634 | 0.534 | 0.96 | 0.807 | 1 | 0.903 | 1.05 | 0.863 | 0.748 | 0.663 | 0.73 | 0.71 | 0.542 | 0.501 | 0.546 | –
EPLC-272H | 0.315 | 0.288 | 0.249 | 0.296 | 0.329 | – | 0.855 | 0.877 | 0.918 | 1.01 | 0.455 | 0.391 | 0.339 | 0.391 | 0.358 | 0.319 | 0.32 | 0.293 | 0.147
COR-L23 | 0.721 | 0.849 | 0.654 | 0.81 | 0.714 | 0.678 | 0.722 | 0.577 | 0.718 | 0.667 | 0.326 | 0.473 | 0.431 | 0.487 | 0.413 | 0.783 | 0.7 | 0.787 | 0.919
NCI-H2126 | 0.727 | 0.691 | 0.751 | 0.721 | 0.644 | 1.05 | 1.04 | 0.978 | 1.09 | 1.02 | 0.544 | 0.564 | 0.61 | 0.659 | 0.586 | 0.639 | 0.63 | 0.658 | 0.549
LCLC-103H | 0.443 | 0.507 | 0.397 | 0.466 | 0.384 | 1.12 | 1.03 | 1.06 | 1 | 1.01 | 0.752 | 0.709 | 0.692 | 0.769 | 0.72 | 0.471 | 0.425 | 0.41 | 0.414
NCI-H1975 | 0.717 | 0.792 | 0.668 | 0.682 | 0.778 | 1 | 1.15 | 0.978 | 1.03 | 0.892 | 0.376 | 0.475 | 0.412 | 0.375 | 0.349 | 0.751 | 0.752 | 0.611 | 0.691
NCI-H1793 | 0.297 | 0.335 | 0.237 | 0.311 | 0.268 | – | – | – | – | – | 0.649 | 0.495 | 0.537 | 0.549 | 0.475 | 0.257 | 0.355 | 0.258 | 0.154
NCI-H2085 | 0.707 | 0.745 | 0.706 | 0.865 | 0.709 | 0.942 | 0.993 | 0.902 | 0.804 | 0.845 | – | 0.538 | 0.517 | 0.546 | 0.534 | 0.773 | 0.582 | 0.851 | 0.412
NCI-H1299 | – | – | – | – | – | 0.998 | 0.914 | 0.924 | 0.952 | 0.891 | – | – | – | – | – | – | – | – | –
NCI-H1703 | – | – | – | – | – | 0.67 | 0.712 | 0.147 | 0.219 | 0.125 | – | – | – | – | – | – | – | – | –
NCI-H2228 | 0.6 | 0.495 | 0.513 | 0.687 | 0.578 | 0.483 | 0.38 | 0.407 | 0.577 | 0.516 | – | – | – | – | – | – | 0.548 | 0.541 | 0.234
NCI-H522 | 0.936 | 0.708 | 0.728 | 0.655 | 0.72 | – | – | – | – | – | 0.668 | 0.63 | 0.665 | 0.64 | 0.607 | 0.749 | 0.648 | 0.624 | 0.617
NCI-H1648 | 0.245 | 0.271 | 0.247 | 0.26 | 0.251 | – | – | – | – | – | 0.521 | – | 0.477 | 0.467 | 0.59 | 0.254 | 0.259 | 0.238 | –
NCI-H1563 | 0.768 | 0.807 | 0.764 | 0.752 | 0.748 | 0.867 | 0.841 | 0.862 | 0.848 | 0.847 | – | – | – | – | – | 0.78 | 0.756 | 0.718 | 0.745
NCI-H2342 | 0.704 | 0.599 | 0.592 | 0.726 | 0.594 | – | – | – | – | – | 0.766 | 0.649 | 0.742 | 0.903 | 0.694 | 0.63 | 0.597 | 0.585 | 0.532
SW 900 | 0.677 | 0.575 | 0.46 | 0.657 | 0.342 | – | – | – | – | – | 0.48 | – | 0.507 | 0.517 | 0.407 | 0.605 | 0.443 | 0.583 | 0.533
NCI-H1395 | 0.749 | 0.626 | 0.666 | 0.605 | 0.6 | – | – | – | – | – | 0.754 | 0.674 | 0.739 | 0.695 | 0.669 | 0.678 | 0.662 | 0.651 | 0.599
A549 | – | – | – | – | – | 0.853 | 0.76 | 0.769 | 0.99 | 0.717 | 0.208 | 0.258 | 0.282 | 0.221 | 0.293 | – | – | – | –

Reference: the supplement of paper PMC10307832
